Values of other authors in Sander's compilation of Henry's law constants (doi:10.1080/01483918608076621).

Assay: Henry solubility constant Hcp at 298.15 K (mol/(m3 Pa))
Details: reference: Janini and Quaddora (1986); cited value
For Cc1ccccc1O [1-hydroxy-2-methylbenzene], the “Henry solubility constant Hcp” value is listed as 2.6.
For Cc1cccc(O)c1 [1-hydroxy-3-methylbenzene], the “Henry solubility constant Hcp” value is listed as 6.1.
In the case of Cc1ccc(O)cc1 [1-hydroxy-4-methylbenzene], the “Henry solubility constant Hcp” value is listed as 5.2.
For CCCCCC(C)=O [2-heptanone], the “Henry solubility constant Hcp” value is listed as 0.35.
In the case of CCCC(C)=O [2-pentanone], the “Henry solubility constant Hcp” value is given as 0.091.
In the case of CC(=O)OC(C)C [2-propyl ethanoate], the “Henry solubility constant Hcp” value is given as 0.029.
In the case of CCC(=O)CC [3-pentanone], the “Henry solubility constant Hcp” value is given as 0.2.
For CCCC=O [butanal], the “Henry solubility constant Hcp” value is listed as 0.054.
In the case of CCCCOC(C)=O [butyl ethanoate], the “Henry solubility constant Hcp” value is listed as 0.035.
For CCOC(C)=O [ethyl ethanoate], the “Henry solubility constant Hcp” value is given as 0.047.
For CC(C)=O [propanone], the “Henry solubility constant Hcp” value is listed as 0.03.
In the case of CCCOC(C)=O [propyl ethanoate], the “Henry solubility constant Hcp” value is given as 0.044.
